By IC50 is commonly meant the concentration needed to halve the response being measured. Read a high IC50 as weaker potency. As usually defined, the solubility is how much of the substance goes into solution per volume. High values mean a readily soluble substance, low ones a poorly soluble substance.

Converted amounts (≈) assume the structure as drawn. Like-named read-outs stand apart in the source and are kept apart here.

The test system of one series is SU-DHL-10. The series is described as follows: Cell proliferation assay, SU-DHL-10. Format: cell-based. The protocol: (§1) Cell lines Pfeiffer (CRL-2632), suDHL-6 (CRL-2959) and suDHL-10 (CRL-2963) were obtained from ATCC. All cell lines were cultured in RPMI-1640 medium (Gibco) plus 10% FBS (Gibco). Cells are harvested by centrifuge and densities are determined using a CounterStar cell counter. Appropriate number of cells are plated in a96-well culture plate and pre-incubate overnight. Tested compounds are 1:3 diluted for 8-points and added into each well. After 6 days' growth, cell counting kit-8 (Dojindo) is used to detect cell viability and read on Tecan infinite pro. IC50s are counted by XLfit using a four-parameter model.

In the next series the test system is Pfeiffer cells. The series is described as follows: Cell proliferation assay, Pfeiffer. The format is cell-based. The method, then:
as §1

A further series addresses T1, PRC2 (EZH2-Y641F) (Homo sapiens, UniProt Q15910, Y641F).
T1 construct: purchased Active motif
The series is described as follows: In vitro methyltransferase assay. Format: biochemical. The protocol: Recombinant PRC2 (EZH2-Y641F) was purchased from Active motif, S-adenosyl-methionin chloride (SAM) and Poly-L-lysine (PLL) were purchased from Sigma-Aldrich, H3(1-50)K27me1 peptide was purchased from Cisbio. LANCEUltra (Perkinelmer) system was used for detection. For the enzyme activity test, tested compounds are 1:3 diluted for 8-points, and added into each well, then 100 ng enzyme is added. And then the buffer [20 mM Tris pH8.5, 2 mM MgCl2, 0.01% Tween-20, 1 mM TCEP] containing […]/250 nM H3 (1-50)K27me1 premixtures are added. After 3 hours enzyme reaction at RT, the premixed detection buffer (PLL, Europium antibody and Ulight) is added, and react for 1 h at RT, then read fluorescence on Tecan infinite pro. IC50s are counted by XLfit using a four-parameter model.

A short description of series [1]: Dynamic solubility experiment. The format is physicochemical. As to conditions: for solubility at 24 h: thermodynamic from solid, room temperature. The source says: The free base samples and the two crystal forms were plotted separately in the experiment.
The subject of the next series is SU-DHL-6. The series is described as follows: Cell proliferation assay, SU-DHL-6. The format is cell-based. The method, then:
as §1

The nature of series [2]: Polymorph screening by mixing shaking. To be noted: mixed crystal forms I to III shaken 1 day at room temperature in different solvents. Format: physicochemical. The method, then: Mixing shaking test was conducted using different solvent systems. 2 mg of each crystal form of crystal form I to crystal form III was weighed into a glass vial to obtain the mixed crystals, the appropriate amount of organic reagents in Table 6 were added, screwed the cap, and a sealing film was used to prevent the solvent from volatilizing, shaken for 1 days at room temperature and 25 r/min, taken out and centrifuged at 10000 r/min for 10 min at 4° C., the supernatant was poured, and the solid was placed in a oven at 50° C. for drying, the resulting solid was collected and sent for XRPD test.

T1 sequence (Q15910 whole entry Y641F): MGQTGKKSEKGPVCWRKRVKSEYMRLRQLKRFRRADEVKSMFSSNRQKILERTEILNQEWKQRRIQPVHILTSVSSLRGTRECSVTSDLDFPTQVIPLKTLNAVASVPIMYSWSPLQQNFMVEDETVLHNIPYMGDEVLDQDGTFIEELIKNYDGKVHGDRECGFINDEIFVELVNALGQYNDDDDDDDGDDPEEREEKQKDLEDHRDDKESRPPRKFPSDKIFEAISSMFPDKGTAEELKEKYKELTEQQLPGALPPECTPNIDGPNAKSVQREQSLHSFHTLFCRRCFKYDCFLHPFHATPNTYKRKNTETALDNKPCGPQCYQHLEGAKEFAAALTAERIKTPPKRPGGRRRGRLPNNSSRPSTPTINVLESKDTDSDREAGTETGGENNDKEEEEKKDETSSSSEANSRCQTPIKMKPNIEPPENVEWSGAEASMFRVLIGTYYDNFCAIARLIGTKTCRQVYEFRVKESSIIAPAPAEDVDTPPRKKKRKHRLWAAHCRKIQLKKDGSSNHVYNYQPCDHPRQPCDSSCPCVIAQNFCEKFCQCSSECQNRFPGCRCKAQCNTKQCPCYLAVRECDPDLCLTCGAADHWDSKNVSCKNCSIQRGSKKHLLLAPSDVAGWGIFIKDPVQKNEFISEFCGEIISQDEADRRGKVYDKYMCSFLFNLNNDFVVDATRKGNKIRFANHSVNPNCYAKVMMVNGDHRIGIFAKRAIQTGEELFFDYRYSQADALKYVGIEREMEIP
T1 sequence (O75530 whole entry partner): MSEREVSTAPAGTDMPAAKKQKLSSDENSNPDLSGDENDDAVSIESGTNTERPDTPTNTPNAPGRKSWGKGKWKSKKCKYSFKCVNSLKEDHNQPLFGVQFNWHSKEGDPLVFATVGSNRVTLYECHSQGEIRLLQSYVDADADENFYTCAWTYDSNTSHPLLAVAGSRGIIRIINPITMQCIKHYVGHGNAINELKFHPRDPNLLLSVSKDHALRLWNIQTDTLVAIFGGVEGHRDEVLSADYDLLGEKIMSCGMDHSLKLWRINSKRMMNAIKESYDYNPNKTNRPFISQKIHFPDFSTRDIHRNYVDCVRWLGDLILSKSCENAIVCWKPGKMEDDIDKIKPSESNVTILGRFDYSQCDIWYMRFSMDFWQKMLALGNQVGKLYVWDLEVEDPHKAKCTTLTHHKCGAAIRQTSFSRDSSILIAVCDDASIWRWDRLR
T1 sequence (Q15022 whole entry partner): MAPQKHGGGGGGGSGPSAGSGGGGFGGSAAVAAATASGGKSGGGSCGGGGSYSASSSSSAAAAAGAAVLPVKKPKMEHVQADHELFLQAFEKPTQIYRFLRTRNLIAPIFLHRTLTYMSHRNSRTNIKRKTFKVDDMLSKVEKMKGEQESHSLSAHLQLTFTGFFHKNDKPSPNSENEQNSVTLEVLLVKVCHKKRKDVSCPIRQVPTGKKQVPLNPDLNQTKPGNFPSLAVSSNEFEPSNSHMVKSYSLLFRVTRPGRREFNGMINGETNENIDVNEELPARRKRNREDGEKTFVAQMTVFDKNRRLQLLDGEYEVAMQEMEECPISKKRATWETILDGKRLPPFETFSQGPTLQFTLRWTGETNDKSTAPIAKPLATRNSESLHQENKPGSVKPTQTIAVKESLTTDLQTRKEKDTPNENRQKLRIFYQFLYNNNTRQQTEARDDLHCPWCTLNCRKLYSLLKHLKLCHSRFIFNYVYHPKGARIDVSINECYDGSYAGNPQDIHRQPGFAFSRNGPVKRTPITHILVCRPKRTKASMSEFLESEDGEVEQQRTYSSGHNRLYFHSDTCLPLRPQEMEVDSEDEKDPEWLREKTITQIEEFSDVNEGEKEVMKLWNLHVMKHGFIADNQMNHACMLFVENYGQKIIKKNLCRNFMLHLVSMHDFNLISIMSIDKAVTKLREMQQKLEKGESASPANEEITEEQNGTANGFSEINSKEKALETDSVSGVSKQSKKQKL
T1 sequence (Q09028 whole entry partner): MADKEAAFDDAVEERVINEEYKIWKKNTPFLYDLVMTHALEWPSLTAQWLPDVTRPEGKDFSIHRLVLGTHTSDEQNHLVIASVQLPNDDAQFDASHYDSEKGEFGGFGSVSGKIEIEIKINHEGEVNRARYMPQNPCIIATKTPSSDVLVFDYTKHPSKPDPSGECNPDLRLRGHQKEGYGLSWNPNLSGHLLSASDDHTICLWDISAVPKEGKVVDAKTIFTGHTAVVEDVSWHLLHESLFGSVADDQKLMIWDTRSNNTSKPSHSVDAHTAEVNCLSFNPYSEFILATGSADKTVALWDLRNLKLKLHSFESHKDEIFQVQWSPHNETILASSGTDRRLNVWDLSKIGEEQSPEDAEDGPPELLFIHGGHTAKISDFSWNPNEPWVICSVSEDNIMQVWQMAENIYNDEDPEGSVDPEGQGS
T1 sequence (Q6ZN18 whole entry partner): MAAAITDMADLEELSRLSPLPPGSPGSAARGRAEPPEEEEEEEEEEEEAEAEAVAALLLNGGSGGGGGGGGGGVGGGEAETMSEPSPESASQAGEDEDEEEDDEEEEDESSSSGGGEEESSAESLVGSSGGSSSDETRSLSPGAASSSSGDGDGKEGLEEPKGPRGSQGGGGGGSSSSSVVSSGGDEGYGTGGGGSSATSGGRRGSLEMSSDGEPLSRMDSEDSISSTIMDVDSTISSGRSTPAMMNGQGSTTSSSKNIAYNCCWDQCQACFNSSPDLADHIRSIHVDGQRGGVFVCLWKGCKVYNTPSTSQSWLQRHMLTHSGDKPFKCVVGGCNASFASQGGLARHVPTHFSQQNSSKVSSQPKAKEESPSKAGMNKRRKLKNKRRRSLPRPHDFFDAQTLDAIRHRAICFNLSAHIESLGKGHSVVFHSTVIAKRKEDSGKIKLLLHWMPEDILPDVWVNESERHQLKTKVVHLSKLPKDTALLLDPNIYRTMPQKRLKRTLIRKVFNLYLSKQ

With `CCc1c(C(=O)NCc2c(C)cc(C)[nH]c2=O)cc2c(cnn2C)c1N(CC)[C@H]1CC[C@H](N2CC(OC)C2)CC1` [Free base, N-((4,6-dimethyl-2-oxo-1,2-dihydropyridin-3-yl)methyl)-5-ethyl-4-(ethyl((1S,4S)-4-(3-methoxyazetidin-1-yl)cyclohexyl)amino)-1-methyl-1H-indazole-6-carboxamide], the “inhibitory activity against SU-DHL-10 cells” value with SU-DHL-10 is “high inhibitory activities”. Besides, the IC50 turned out to be 7 nM with Pfeiffer cells (Homo sapiens, Pfeiffer, 144 h, 6 days' growth, cell counting kit-8) and 12 nM at PRC2 (EZH2-Y641F). The “inhibitory activity against cells” value in the series on Pfeiffer cells (Table 10) is recorded as “high inhibitory activity”. Further, the results for the “inhibitory activity against EZH2 Y641F enzyme” value at PRC2 (EZH2-Y641F) and against PRC2 (EZH2-Y641F) (listed as compound of formula X) were “high inhibitory activity” and “high inhibitory activities”, respectively. In addition, the “Final pH” value in series [1] (0.1M HCl) came out at 4.56; in series [1] (H2O) it was 8.32; in series [1] (pH 4.5 buffer), 5.84; in series [1] (pH 6.8 buffer), 6.74. Moreover, the Phenomenon entry in series [1] (0.1M HCl) is “clear”; in series [1] (H2O), “turbid”; in series [1] (pH 4.5 buffer), “turbid”; in series [1] (pH 6.8 buffer), “turbid”. Moreover, the solubility at 24 h is 3590 µg/mL (≈ 6540 µM) in series [1] (aqueous buffer, pH 4.5 buffer); 840 µg/mL (≈ 1530 µM) in series [1] (aqueous buffer, pH 6.8 buffer); greater than 50000 µg/mL in series [1] (simulated gastric fluid, 0.1M HCl); 60 µg/mL (≈ 109 µM) in series [1] (water, H2O). The “inhibitory activity against SU-DHL-6 cells” value in the series with SU-DHL-6 is “high inhibitory activities”.

`CCc1c(C(=O)NCc2c(C)cc(C)[nH]c2=O)cc2c(cnn2C)c1N(CC)[C@H]1CC[C@H](N2CC(OC)C2)CC1` [Crystal form V]: the “stability of crystal form” value in series [2] is “stable crystal form”.
